Where two headings read alike, the source gives them in different places.
Key:
[1] = Serum hepatic/renal function profiling of infected, treated mice; type: in vivo, ICR mice; conditions: for Serum GGT: normal range 1–15 U/L; for Serum TBIL: normal range 1.7–15.4 µM; for Serum BUN: normal range 4.9–10.4 mM; for Serum ALT: normal range 28–132 U/L; for Serum AST: normal range 59–247 U/L; for Nephrotoxicity: infected treated mice, judged from BUN
Method: Following maturation, Schistosoma parasites initiate oviposition, with a proportion of eggs migrating via the circulatory system to hepatic tissues. This ectopic deposition induces granuloma formation that subsequently elicits a cascade of immune-mediated pathologies, ultimately compromising hepatic and renal functions in murine models. To evaluate therapeutic efficacy, retro-orbital blood sampling was performed for comprehensive hepatic function profiling, enabling systematic assessment of pharmacological impacts on schistosomiasis-associated organ damage.
Lead compounds 5, 18, and 41 (100 mg/kg) were orally administered once daily for 5 consecutive days to infected mice (n = 6/group) during two therapeutic windows: (i) Juvenile stage: treatment initiated at 9 dpi, terminal sacrifice at 45 dpi; (ii) adult stage: treatment initiated at 35 dpi, terminal sacrifice at 45 dpi. Positive controls received praziquantel (PZQ, 100 mg/kg/day ×5 days); negative controls received PBS (0.3 mL). Mice treated at 9 dpi were euthanized 36 days post-treatment; those treated at 35 dpi were euthanized 10 days post-treatment. Adult worms were perfused from the hepatic portal system and mesenteric veins. Parasite burden was quantified by worm enumeration, and worm burden reduction (WBR) was calculated: […]

[2] = system: HepG2 (human liver cancer) cells; assay: Cytotoxicity MTT assay, HepG2; type: cell-based; conditions: Homo sapiens, HepG2, 48 h incubation
Method: (§1) The cytotoxicity of compounds 5, 18, and 41 against human liver cancer (HepG2) and human breast cancer (MCF-7) cell lines in vitro was evaluated using the MTT assay, with cisplatin as a positive control. Cells were plated into 96-well plates and incubated in 100 μL of Dulbecco’s modified Eagle’s medium for 24 h. Test compounds at specified final concentrations were then added to the culture medium. After 48 h incubation, MTT dye (10 μL, 0.5 mg/mL) was added, and cells were incubated for an additional 4 h at 37°C in 5% CO2. Formazan crystals were dissolved in 100 μL DMSO per well, and absorbance at 570 nm (OD570) was measured using an ELx800 microplate reader (Bio-Tek, Winooski, VT, USA) with background subtraction. Cytotoxicity was expressed as IC50 (the concentration causing 50% reduction in cell growth compared to untreated controls). Experiments were performed in triplicate, with results presented as mean ± standard deviation.

Acute oral toxicity = type: in vivo; conditions: ICR, mouse, in vivo, po, single oral dose, healthy ICR mice
Method: (§2) ICR mice (n = 10/group), aged 6 to 8 weeks, received a single oral dose of compounds 5, 18, and 41 (732–2,234 mg/kg). LD50 values were determined by Probit analysis (SPSS 26.0).

healthy mice = assay: Acute oral toxicity; type: in vivo; conditions: single oral dose, healthy ICR mice
Method: as §2

[3] = system: MCF-7 (human breast cancer) cells; assay: Cytotoxicity MTT assay, MCF-7; type: cell-based; conditions: Homo sapiens, MCF7, 48 h incubation
Method: as §1

[4] = system: S. japonicum (Chinese strain); assay: In vivo antischistosomal assay in infected mice (worm burden, worm morphology, liver eggs); set-up: species or system Schistosoma japonicum in ICR mice; conditions: for Morphology of worms after treatment in vivo, adult stage / Worm burden reduction (WBR), Adult / Number of worms, Adult / Morphology of worms after treatment in vivo, juvenile stage / Worm burden reduction (WBR), Juvenile / Number of worms, Juvenile: mice, oral 100 mg/kg/day for 5 days; for Worm burden reduction (WBR), Adult: adult stage (from 35 dpi); for Worm burden reduction (WBR), Adult / Worm burden reduction (WBR), Juvenile: 100 mg/kg/day; for Number of worms, Adult: adult stage (treatment from 35 dpi, sacrifice 45 dpi); for Worm burden reduction (WBR), Juvenile: juvenile stage (from 9 dpi); for Number of worms, Juvenile: juvenile stage (treatment from 9 dpi, sacrifice 45 dpi); for Hepatic egg burden, adult-stage treatment: treatment in adult stage
Method: Lead compounds 5, 18, and 41 (100 mg/kg) were orally administered once daily for 5 consecutive days to infected mice (n = 6/group) during two therapeutic windows: (i) Juvenile stage: treatment initiated at 9 dpi, terminal sacrifice at 45 dpi; (ii) adult stage: treatment initiated at 35 dpi, terminal sacrifice at 45 dpi. Positive controls received praziquantel (PZQ, 100 mg/kg/day ×5 days); negative controls received PBS (0.3 mL). Mice treated at 9 dpi were euthanized 36 days post-treatment; those treated at 35 dpi were euthanized 10 days post-treatment. Adult worms were perfused from the hepatic portal system and mesenteric veins. Parasite burden was quantified by worm enumeration, and worm burden reduction (WBR) was calculated:
WBR (%)=[1−Mean worm count (treated) / Mean worm count (control)]×100% .

[5] = system: adult worms of S. japonicum (Chinese strain); assay: microbe, parasite or virus in culture; conditions: for mortality at 100 µM / LC50: Schistosoma japonicum; for LC50: read-out: LC50 (72 h)
Method: S. japonicum cercariae (Chinese strain) were acquired from infected Oncomelania hupensis snails (Wuxi Insect Vector Biology Co., Ltd., China) ([28]). ICR mice (6–8 weeks, 22–25 g; Hunan SJA Laboratory Animal Co., Ltd., China) were percutaneously infected via abdominal exposure to 60 ± 5 cercariae. Adult schistosomes were perfused from the hepatic portal system at 35 dpi using a modified Duvall and DeWitt method ([29]). Animals were housed under controlled conditions (22°C ± 1°C, 12 h light/dark cycle) with ad libitum access to feed and water.
Adult S. japonicum worms isolated from ICR mice were maintained in sterile culture medium (2.0 mL) comprising 77% RPMI 1640 (Lanzhou Bailing Biotech Co., Ltd.; pH 7.5, HEPES-buffered), 20% heat-inactivated fetal bovine serum (Lanzhou Minhai Bio-Engineering Co., Ltd.), and 3% penicillin-streptomycin (100×; 10,000 U/mL penicillin, 10,000 μg/mL streptomycin; New Cell & Molecular Biotech Co., Ltd., China). Incubation was performed at 37°C under 5% CO2. Test compounds were dissolved in DMSO as 0.1 M stock solutions; 2.0 μL aliquots were added to worm-containing media (final concentration: 100 μM in 0.1% DMSO). Negative controls received equivalent volumes of vehicle (0.1% DMSO in RPMI 1640). Parasite viability (motor activity, tegumental integrity, survival) was assessed every 12 h for 72 h using an Olympus CKX53 inverted microscope (n ≥ 3 independent replicates).

[6] = infected mice treated in adult stage
[7] = infected mice treated in juvenile stage
[8] = 24 h, read-out: Mortality (%) 24 h, 100 μM, 24 h, adult worms in vitro
[9] = 36 h, read-out: Mortality (%) 36 h, 100 μM, 36 h, adult worms in vitro
[10] = 48 h, read-out: Mortality (%) 48 h, 100 μM, 48 h, adult worms in vitro
[11] = 72 h, read-out: Mortality (%) 72 h, 100 μM, 72 h, adult worms in vitro

Structure (SMILES) | Serum GGT [1, 6] [U/L] | Serum TBIL [1, 6] [µM] | Serum BUN [1, 6] [mM] | Serum ALT [1, 6] [U/L] | Serum AST [1, 6] [U/L] | Serum GGT [1, 7] [U/L] | Serum TBIL [1, 7] [µM] | Serum BUN [1, 7] [mM] | Serum ALT [1, 7] [U/L] | Serum AST [1, 7] [U/L] | Nephrotoxicity [1] | IC50 [2] [µM] | LD50 (Acute oral toxicity) [mg/kg] | LD50 (healthy mice) | LogLD50 (healthy mice) | IC50 [3] [µM] | Morphology of worms after treatment in vivo, adult stage [4] | Worm burden reduction (WBR), Adult [4] [%] | Number of worms, Adult [4] | Morphology of worms after treatment in vivo, juvenile stage [4] | other results
CN(NC(=O)c1ccc(Br)cc1)c1ccc(Cl)c(Cl)c1 [Compound 18] | 6.73 ± 9.70 | 18.73 ± 6.05 | 8.68 ± 1.22 | 322.33 ± 239.58 | 783.67 ± 457.47 | 0.93 ± 0.81 | 2.98 ± 1.03 | 12.53 ± 1.31 | 546.00 ± 82.15 | 673.67 ± 153.58 | transient nephrotoxicity | 22.6 ± 1.48 | 1400 | >2,000 mg/kg | >3.30 | 40.9 ± 2.82 | making the males thicker and shorter | 20 | 35 | marked stunting of male schistosomes | Worm burden reduction (WBR), Juvenile [4]: 40%; Number of worms, Juvenile [4]: 24; Hepatic egg burden, adult-stage treatment ([4]; mouse livers at 45 dpi): comparable egg burdens to untreated controls; Hepatic egg burden, juvenile-stage treatment ([4]; mouse livers at 45 dpi, treatment in juvenile stage): significantly reduced egg burdens; Mortality (%) 72 h ([5]; 100 μM, 72 h, adult worms in vitro): 100%; mortality at 100 µM [5, 8]: 10%; mortality at 100 µM [5, 9]: 50%; mortality at 100 µM [5, 10]: 80%; LC50 ([5]; 72 h): 83 ± 1.9 µM; mortality at 100 µM [5, 11]: > 90%
CN(NC(=O)c1ccc(Br)cc1)c1ccc(C(F)(F)F)c(Cl)c1 [Compound 41] | 0.87 ± 0.32 | 7.95 ± 2.11 | 7.79 ± 2.11 | 274.67 ± 186.53 | 453.33 ± 217.99 | 1.60 ± 0.17 | 3.61 ± 1.39 | 6.18 ± 4.85 | 364.00 ± 329.78 | 557.67 ± 630.32 | without observable nephrotoxicity | 20.7 ± 1.36 | 1400 | >2,000 mg/kg | >3.30 | 39.2 ± 3.53 | making the males thicker and shorter | 30 | 31 | marked stunting of male schistosomes | Worm burden reduction (WBR), Juvenile [4]: 30%; Number of worms, Juvenile [4]: 28; Hepatic egg burden, adult-stage treatment ([4]; mouse livers at 45 dpi): comparable egg burdens to untreated controls; mortality at 100 µM [5, 8]: 35%; mortality at 100 µM [5, 9]: 70%; mortality at 100 µM [5, 10]: 80%; LC50 ([5]; 72 h): 61.4 ± 1.8 µM; mortality at 100 µM [5, 11]: 100%
